{
  "source": "ChEMBL document CHEMBL2321869",
  "about": "“Ion channels as therapeutic targets: a drug discovery perspective” (J Med Chem, 2013)",
  "key": {"[1]": {"target": "T1, Glutamate receptor ionotropic, kainate 1 (Homo sapiens, UniProt P39086)", "T1 sequence (P39086 whole entry)": "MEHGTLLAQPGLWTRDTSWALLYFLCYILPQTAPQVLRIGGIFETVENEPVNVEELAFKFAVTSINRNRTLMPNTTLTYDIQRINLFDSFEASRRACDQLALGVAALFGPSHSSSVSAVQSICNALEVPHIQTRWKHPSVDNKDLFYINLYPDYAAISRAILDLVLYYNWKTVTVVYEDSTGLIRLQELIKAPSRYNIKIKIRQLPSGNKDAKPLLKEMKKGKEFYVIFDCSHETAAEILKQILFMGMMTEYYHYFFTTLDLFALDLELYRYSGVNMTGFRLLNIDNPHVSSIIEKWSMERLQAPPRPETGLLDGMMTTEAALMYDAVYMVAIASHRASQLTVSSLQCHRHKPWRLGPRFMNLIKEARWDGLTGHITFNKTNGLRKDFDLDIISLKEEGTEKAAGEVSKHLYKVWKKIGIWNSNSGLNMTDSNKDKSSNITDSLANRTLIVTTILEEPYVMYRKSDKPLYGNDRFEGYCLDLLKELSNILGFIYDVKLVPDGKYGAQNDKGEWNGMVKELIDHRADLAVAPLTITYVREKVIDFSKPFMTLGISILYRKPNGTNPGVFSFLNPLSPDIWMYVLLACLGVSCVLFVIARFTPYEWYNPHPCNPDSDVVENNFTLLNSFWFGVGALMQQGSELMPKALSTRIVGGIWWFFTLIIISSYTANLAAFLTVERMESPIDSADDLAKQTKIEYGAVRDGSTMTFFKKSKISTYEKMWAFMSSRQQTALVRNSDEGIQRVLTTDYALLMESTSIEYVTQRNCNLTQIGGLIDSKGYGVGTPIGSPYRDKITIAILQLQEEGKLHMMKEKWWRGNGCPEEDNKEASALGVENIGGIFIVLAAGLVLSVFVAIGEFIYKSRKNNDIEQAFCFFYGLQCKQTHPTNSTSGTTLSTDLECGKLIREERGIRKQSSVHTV", "assay": "Inhibition of GluK1 receptor (unknown origin)"}, "[2]": {"assay": "Inhibition of AMPA receptor (unknown origin)", "set-up": "species or system Homo sapiens"}, "[3]": {"assay": "Agonist activity at AMPA receptor in rat hippocampal neurons by patch clamp technique", "type": "tissue-based", "conditions": "Hippocampus"}, "[4]": {"species": "Rattus norvegicus", "assay": "Selectivity ratio of EC50 for AMPA receptor in rat DRG neurons to EC50 for AMPA receptor in rat hippocampal neurons", "type": "tissue-based", "conditions": "Hippocampus"}, "[5]": {"target": "T2, Gamma-aminobutyric acid receptor subunit alpha-5 (Homo sapiens, UniProt P31644)", "T2 sequence (P31644 whole entry)": "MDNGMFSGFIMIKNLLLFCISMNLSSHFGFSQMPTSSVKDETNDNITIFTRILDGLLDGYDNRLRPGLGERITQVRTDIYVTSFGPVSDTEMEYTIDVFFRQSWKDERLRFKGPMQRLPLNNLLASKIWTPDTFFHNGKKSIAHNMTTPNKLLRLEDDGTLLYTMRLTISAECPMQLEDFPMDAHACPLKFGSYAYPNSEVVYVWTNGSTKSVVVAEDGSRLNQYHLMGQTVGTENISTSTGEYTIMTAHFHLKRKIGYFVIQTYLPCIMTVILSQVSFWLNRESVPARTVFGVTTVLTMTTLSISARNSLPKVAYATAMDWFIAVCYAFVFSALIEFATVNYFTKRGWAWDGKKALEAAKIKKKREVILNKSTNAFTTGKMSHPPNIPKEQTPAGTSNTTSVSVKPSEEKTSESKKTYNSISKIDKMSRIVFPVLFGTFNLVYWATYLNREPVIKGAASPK", "assay": "Positive allosteric modulation of GABAA alpha5 (unknown origin)"}, "[6]": {"target": "T3, Gamma-aminobutyric acid receptor subunit alpha-2 (Homo sapiens) (UniProt P47869)", "T3 sequence (whole entry)": "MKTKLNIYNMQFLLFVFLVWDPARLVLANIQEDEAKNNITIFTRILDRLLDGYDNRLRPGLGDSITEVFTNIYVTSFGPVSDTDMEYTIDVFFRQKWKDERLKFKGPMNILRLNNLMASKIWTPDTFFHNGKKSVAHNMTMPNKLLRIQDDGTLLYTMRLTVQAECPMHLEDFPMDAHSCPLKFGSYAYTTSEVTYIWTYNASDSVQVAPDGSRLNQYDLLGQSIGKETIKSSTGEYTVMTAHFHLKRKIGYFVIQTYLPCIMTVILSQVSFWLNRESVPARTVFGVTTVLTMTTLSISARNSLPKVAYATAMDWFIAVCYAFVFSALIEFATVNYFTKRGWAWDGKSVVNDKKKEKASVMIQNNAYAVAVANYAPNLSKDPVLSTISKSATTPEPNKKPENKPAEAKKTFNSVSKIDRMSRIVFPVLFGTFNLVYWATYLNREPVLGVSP", "assay": "Positive allosteric modulation of GABAA alpha2 (unknown origin) relative to control"}, "[7]": {"target": "T4, Gamma-aminobutyric acid receptor subunit alpha-1 (Homo sapiens, UniProt P14867)", "T4 sequence (P14867 whole entry)": "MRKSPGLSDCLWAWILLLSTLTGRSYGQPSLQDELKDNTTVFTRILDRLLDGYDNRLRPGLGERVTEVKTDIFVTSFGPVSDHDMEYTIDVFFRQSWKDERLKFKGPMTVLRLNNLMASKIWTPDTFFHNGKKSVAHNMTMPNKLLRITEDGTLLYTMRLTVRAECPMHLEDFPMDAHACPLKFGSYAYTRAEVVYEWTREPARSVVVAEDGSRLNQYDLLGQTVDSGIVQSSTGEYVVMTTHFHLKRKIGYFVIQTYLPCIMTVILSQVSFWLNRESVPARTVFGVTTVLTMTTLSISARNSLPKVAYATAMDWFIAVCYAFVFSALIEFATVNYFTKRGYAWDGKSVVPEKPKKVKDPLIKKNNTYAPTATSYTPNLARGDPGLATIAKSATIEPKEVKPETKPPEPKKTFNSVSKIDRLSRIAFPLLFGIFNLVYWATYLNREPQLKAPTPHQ", "assay": "Positive allosteric modulation of GABAA alpha1 (unknown origin)"}, "[8]": {"target": "T5, Gamma-aminobutyric acid receptor subunit alpha-3 (Homo sapiens, UniProt P34903)", "T5 sequence (P34903 whole entry)": "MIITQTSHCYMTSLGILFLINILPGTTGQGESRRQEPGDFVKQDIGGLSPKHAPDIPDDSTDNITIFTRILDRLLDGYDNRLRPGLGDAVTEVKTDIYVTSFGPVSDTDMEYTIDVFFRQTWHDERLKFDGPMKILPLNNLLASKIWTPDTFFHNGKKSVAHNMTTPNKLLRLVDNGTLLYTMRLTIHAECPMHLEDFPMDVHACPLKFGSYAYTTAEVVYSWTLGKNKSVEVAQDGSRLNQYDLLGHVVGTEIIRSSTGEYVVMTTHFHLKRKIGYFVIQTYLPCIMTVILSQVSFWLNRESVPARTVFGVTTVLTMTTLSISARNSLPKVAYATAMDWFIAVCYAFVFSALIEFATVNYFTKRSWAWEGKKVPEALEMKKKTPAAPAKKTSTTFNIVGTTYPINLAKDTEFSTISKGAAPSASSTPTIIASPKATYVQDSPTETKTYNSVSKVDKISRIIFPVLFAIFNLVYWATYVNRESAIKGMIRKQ", "assay": "Positive allosteric modulation of GABAA alpha3 (unknown origin)"}, "[9]": {"target": "Gamma-aminobutyric acid receptor subunit alpha-1 (Homo sapiens) (UniProt P14867)", "assay": "Positive allosteric modulation of GABAA alpha1 (unknown origin) relative to control"}, "[10]": {"target": "Gamma-aminobutyric acid receptor subunit alpha-3 (Homo sapiens) (UniProt P34903)", "assay": "Positive allosteric modulation of GABAA alpha3 (unknown origin) relative to control"}, "[11]": {"target": "T6, Gamma-aminobutyric acid receptor subunit alpha-2 (Homo sapiens, UniProt P47869)", "T6 sequence (P47869 whole entry)": "T3 sequence (whole entry)", "assay": "Positive allosteric modulation of GABAA alpha2 (unknown origin)"}, "[12]": {"target": "Potassium channel subfamily K member 2 (Homo sapiens, UniProt O95069)", "assay": "Inhibition of TREK-1 (unknown origin)"}, "[13]": {"target": "Sodium channel protein type 10 subunit alpha (Homo sapiens, UniProt Q9Y5Y9)", "assay": "Inhibition of voltage-gated Na channel 1.8 (unknown origin)"}, "[14]": {"assay": "Blockade of ASIC (unknown origin)", "set-up": "species or system Homo sapiens"}, "[15]": {"target": "Inward rectifier potassium channel 2 (Mus musculus, UniProt P35561)", "sequence (P35561 whole entry)": "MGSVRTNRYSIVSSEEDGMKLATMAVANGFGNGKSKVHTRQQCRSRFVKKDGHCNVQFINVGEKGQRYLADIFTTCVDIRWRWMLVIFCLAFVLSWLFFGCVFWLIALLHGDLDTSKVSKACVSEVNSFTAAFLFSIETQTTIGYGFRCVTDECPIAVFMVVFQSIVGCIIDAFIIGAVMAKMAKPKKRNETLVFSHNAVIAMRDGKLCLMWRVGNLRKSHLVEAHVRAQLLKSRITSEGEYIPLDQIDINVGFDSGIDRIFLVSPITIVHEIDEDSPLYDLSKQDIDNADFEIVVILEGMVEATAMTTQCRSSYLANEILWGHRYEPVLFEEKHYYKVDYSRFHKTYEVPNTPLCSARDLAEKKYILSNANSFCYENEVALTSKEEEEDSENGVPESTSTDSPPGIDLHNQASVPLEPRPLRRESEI", "assay": "Inhibition of mouse Kir2.1 expressed in HEK293 cells by patch clamp technique", "type": "cell-based"}, "[16]": {"target": "Acid-sensing ion channel 3 (Rattus norvegicus, UniProt O35240)", "assay": "Inhibition of ASIC3 in rat DRG neurons"}, "[17]": {"target": "Voltage-gated potassium channel KCNC1 (Rattus norvegicus, UniProt P25122)", "sequence (P25122 whole entry)": "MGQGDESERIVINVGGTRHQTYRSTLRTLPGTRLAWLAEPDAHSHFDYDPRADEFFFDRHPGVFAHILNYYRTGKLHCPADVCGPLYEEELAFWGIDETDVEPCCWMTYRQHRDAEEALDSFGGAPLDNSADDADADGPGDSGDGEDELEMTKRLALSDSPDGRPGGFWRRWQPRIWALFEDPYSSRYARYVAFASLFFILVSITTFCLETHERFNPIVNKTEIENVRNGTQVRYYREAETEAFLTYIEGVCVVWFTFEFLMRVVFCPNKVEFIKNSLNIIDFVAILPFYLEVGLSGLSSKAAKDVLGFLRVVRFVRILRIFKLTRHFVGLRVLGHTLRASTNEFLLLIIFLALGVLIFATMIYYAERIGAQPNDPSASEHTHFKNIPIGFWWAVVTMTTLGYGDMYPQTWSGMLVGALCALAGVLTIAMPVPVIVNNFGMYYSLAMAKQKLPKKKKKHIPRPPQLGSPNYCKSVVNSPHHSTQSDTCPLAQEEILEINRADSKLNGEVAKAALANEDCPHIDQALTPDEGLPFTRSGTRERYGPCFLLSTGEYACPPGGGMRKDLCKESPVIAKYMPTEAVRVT", "assay": "Inhibition of rat voltage-gated K channel 3.1 expressed in CHO cells by patch clamp assay", "type": "cell-based"}, "[18]": {"target": "Calcium-activated potassium channel subunit alpha-1 (Homo sapiens, UniProt Q12791)", "sequence (Q12791 whole entry)": "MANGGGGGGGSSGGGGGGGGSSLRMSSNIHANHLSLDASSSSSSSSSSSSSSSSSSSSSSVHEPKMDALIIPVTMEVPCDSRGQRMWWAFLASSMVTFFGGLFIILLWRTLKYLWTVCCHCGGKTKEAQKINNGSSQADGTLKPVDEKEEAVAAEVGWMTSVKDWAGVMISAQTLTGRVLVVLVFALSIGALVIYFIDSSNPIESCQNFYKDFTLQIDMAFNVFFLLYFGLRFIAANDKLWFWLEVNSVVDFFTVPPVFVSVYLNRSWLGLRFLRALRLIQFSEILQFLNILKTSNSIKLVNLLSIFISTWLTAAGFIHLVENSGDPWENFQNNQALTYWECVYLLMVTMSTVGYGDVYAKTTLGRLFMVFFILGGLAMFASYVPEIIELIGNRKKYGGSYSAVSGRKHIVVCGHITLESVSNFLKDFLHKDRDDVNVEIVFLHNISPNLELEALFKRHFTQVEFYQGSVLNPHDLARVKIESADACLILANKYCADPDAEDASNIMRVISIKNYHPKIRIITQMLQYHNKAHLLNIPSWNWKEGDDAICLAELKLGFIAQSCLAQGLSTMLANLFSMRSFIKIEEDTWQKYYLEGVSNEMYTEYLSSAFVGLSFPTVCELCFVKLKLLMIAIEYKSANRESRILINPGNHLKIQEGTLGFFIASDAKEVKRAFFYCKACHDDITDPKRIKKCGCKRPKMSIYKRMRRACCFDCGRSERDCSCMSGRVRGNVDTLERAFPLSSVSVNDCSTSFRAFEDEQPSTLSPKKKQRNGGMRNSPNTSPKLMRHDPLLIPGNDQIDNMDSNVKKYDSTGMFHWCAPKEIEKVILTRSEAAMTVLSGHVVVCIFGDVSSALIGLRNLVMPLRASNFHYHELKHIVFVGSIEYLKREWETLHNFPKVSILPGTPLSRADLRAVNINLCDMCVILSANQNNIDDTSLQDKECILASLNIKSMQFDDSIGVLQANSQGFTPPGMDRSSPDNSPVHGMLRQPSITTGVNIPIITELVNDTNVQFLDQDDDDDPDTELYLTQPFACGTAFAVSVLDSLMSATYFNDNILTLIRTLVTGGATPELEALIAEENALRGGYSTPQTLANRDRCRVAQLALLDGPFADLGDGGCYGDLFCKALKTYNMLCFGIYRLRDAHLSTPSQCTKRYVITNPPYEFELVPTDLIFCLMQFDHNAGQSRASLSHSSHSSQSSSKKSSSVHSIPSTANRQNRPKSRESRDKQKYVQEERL", "assay": "Positive modulation of Kca 1.1 (unknown origin)"}, "[19]": {"target": "Potassium voltage-gated channel subfamily KQT member 2 (Homo sapiens, UniProt O43526)", "sequence (O43526 whole entry)": "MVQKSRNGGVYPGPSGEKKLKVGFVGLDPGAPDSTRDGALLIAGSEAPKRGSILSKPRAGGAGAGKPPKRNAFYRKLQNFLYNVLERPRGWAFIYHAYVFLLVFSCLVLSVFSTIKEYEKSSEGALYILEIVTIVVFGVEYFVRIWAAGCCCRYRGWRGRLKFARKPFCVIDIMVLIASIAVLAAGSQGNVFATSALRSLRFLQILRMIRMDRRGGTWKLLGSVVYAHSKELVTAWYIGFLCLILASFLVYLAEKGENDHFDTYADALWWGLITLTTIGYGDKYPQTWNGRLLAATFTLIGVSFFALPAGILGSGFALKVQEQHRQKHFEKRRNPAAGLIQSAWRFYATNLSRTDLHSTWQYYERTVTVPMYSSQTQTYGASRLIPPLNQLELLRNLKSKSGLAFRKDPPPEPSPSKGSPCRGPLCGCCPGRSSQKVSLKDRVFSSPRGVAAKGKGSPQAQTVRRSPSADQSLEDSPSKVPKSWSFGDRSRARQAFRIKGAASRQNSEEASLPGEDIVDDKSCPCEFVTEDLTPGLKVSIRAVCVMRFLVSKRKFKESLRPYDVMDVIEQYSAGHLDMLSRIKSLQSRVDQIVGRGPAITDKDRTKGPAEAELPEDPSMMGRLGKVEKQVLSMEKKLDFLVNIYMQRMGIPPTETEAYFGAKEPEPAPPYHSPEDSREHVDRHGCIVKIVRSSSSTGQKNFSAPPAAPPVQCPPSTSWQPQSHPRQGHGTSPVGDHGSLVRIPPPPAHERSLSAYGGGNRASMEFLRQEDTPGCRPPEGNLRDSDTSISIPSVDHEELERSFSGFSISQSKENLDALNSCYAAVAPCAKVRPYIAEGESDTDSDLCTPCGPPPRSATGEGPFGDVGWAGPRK", "assay": "Positive modulatory activity at voltage-gated K channel 7.2 (unknown origin)"}, "[20]": {"target": "Potassium voltage-gated channel subfamily KQT member 4 (Homo sapiens, UniProt P56696)", "sequence (P56696 whole entry)": "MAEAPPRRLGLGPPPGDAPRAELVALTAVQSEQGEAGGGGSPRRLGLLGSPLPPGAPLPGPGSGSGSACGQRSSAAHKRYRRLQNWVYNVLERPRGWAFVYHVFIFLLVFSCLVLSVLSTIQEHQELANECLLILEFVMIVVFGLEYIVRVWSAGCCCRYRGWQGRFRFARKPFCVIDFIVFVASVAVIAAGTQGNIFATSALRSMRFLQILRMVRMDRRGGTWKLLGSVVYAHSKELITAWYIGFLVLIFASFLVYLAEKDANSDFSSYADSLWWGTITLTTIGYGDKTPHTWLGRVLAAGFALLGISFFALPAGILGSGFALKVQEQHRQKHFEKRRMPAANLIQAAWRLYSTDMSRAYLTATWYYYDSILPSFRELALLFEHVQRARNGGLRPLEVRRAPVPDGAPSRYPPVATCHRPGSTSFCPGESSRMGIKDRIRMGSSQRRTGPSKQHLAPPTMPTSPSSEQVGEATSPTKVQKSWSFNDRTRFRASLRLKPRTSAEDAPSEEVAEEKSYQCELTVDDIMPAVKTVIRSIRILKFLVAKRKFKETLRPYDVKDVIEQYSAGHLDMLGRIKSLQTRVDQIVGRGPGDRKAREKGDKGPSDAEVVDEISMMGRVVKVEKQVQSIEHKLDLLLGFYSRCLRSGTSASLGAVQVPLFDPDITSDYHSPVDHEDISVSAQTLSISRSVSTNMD", "assay": "Positive modulatory activity at voltage-gated K channel 7.4 (unknown origin)"}, "[21]": {"target": "Potassium voltage-gated channel subfamily KQT member 3 (Homo sapiens, UniProt O43525)", "assay": "Positive modulatory activity at voltage-gated K channel 7.3 (unknown origin)"}, "[22]": {"target": "Potassium voltage-gated channel subfamily KQT member 5 (Homo sapiens, UniProt Q9NR82)", "assay": "Positive modulatory activity at voltage-gated K channel 7.5 (unknown origin)"}, "[23]": {"target": "P2X2/P2X3 heterotrimeric receptor (Homo sapiens, UniProt P56373+Q9UBL9)", "assay": "Antagonist activity at human P2X2/3 receptor", "type": "protein-complex assay"}, "[24]": {"target": "T1, Glutamate receptor ionotropic, kainate 1", "assay": "Agonist activity at GluK1 (unknown origin)"}},
  "data": [
    {"smiles": "O=C(O)[C@@H]1C[C@H]2C[C@@H](CCc3nn[nH]n3)CC[C@H]2CN1", "note": "[TEZAMPANEL ANHYDROUS]", "values": [
      {"measurement": "IC50", "setting": "[1]", "value": 500, "unit": "nM"},
      {"measurement": "IC50", "setting": "[2]", "value": 500, "unit": "nM"}
    ]},
    {"smiles": "N[C@@H](Cn1cc(F)c(=O)[nH]c1=O)C(=O)O", "values": [
      {"measurement": "EC50", "setting": "[3]", "value": 1500, "unit": "nM"},
      {"measurement": "Ratio EC50", "setting": "[4]", "value": 46}
    ]},
    {"smiles": "Cc1cc(-c2nncc3c(C(C)(C)C)c(OCc4ncnn4C)nn23)no1", "values": [
      {"measurement": "Ki", "setting": "[5]", "value": 1.4, "unit": "nM"},
      {"measurement": "Activity", "setting": "[6]", "value": 4, "unit": "%"},
      {"measurement": "Ki", "setting": "[7]", "value": 0.8, "unit": "nM"},
      {"measurement": "Ki", "setting": "[8]", "value": 0.8, "unit": "nM"},
      {"measurement": "Activity", "setting": "[9]", "value": 23, "unit": "%"},
      {"measurement": "Activity", "setting": "[10]", "value": -15, "unit": "%"},
      {"measurement": "Ki", "setting": "[11]", "value": 0.8, "unit": "nM"}
    ]},
    {"smiles": "CCOC(=O)C1=C(COCCN)NC(C)=C(C(=O)OC)C1c1ccccc1Cl", "note": "(stereo not drawn) [AMLODIPINE]", "values": [
      {"measurement": "IC50", "setting": "[12]", "value": 400, "unit": "nM"}
    ]},
    {"smiles": "O=C(NCc1cccnc1N1CCOCC1)c1cncc(-c2ccc(OC(F)(F)F)cc2)n1", "values": [
      {"measurement": "IC50", "setting": "[13]", "value": 30, "unit": "nM"}
    ]},
    {"smiles": "N=C(N)NC(=O)c1nc(Cl)c(N)nc1N", "note": "[AMILORIDE]", "values": [
      {"measurement": "IC50", "setting": "[14]", "value": 10000, "unit": "nM"}
    ]},
    {"smiles": "COc1ccc(CNCc2cccc3ccccc23)cc1", "values": [
      {"measurement": "IC50", "setting": "[15]", "value": 1800, "unit": "nM"}
    ]},
    {"smiles": "CC(C)C1c2cc(C3CC3c3ccc4cc(C(=N)N)ccc4c3)ccc2CCN1C", "note": "(stereo not drawn)", "values": [
      {"measurement": "IC50", "setting": "[16]", "value": 9500, "unit": "nM"}
    ]},
    {"smiles": "CCOC(=O)c1ncn2c1[C@@H]1CCCN1C(=O)c1cc(OC)ccc1-2", "values": [
      {"measurement": "Ki", "setting": "[5]", "value": 0.45, "unit": "nM"},
      {"measurement": "Ki", "setting": "[7]", "value": 49, "unit": "nM"},
      {"measurement": "Ki", "setting": "[8]", "value": 25, "unit": "nM"},
      {"measurement": "Ki", "setting": "[11]", "value": 27, "unit": "nM"}
    ]},
    {"smiles": "CNCCC(Oc1ccc(C(F)(F)F)cc1)c1ccccc1", "note": "(stereo not drawn) [FLUOXETINE]", "values": [
      {"measurement": "IC50", "setting": "[17]", "value": 13100, "unit": "nM"}
    ]},
    {"smiles": "NCCC(Oc1ccc(C(F)(F)F)cc1)c1ccccc1", "note": "(stereo not drawn) [NORFLUOXETINE]", "values": [
      {"measurement": "IC50", "setting": "[17]", "value": 800, "unit": "nM"}
    ]},
    {"smiles": "COc1ccc(Cl)cc1[C@]1(F)C(=O)Nc2cc(C(F)(F)F)ccc21", "note": "[FLINDOKALNER]", "values": [
      {"measurement": "EC50", "setting": "[18]", "value": 352, "unit": "nM"},
      {"measurement": "EC50", "setting": "[19]", "value": 2400, "unit": "nM"},
      {"measurement": "EC50", "setting": "[20]", "value": 2400, "unit": "nM"},
      {"measurement": "EC50", "setting": "[21]", "value": 2400, "unit": "nM"},
      {"measurement": "EC50", "setting": "[22]", "value": 2400, "unit": "nM"}
    ]},
    {"smiles": "CCc1nnnn1-c1cc(C(=O)NC(C)c2cnccn2)cc(-c2ccc(C)cc2)c1", "note": "(stereo not drawn)", "values": [
      {"measurement": "IC50", "setting": "[23]", "value": 8000, "unit": "nM"}
    ]},
    {"smiles": "CC(C)(C)c1s[nH]c(=O)c1C[C@H](N)C(=O)O", "values": [
      {"measurement": "EC50", "setting": "[24]", "value": 100, "unit": "nM"}
    ]},
    {"smiles": "Cc1csc(-c2cc(-c3ccncc3)c3n(c2=O)CCCc2ccncc2-3)n1", "values": [
      {"measurement": "Activity", "setting": "[6]", "value": 37, "unit": "%"},
      {"measurement": "Ki", "setting": "[7]", "value": 1.3, "unit": "nM"},
      {"measurement": "Ki", "setting": "[8]", "value": 0.5, "unit": "nM"},
      {"measurement": "Ki", "setting": "[11]", "value": 0.6, "unit": "nM"}
    ]}
  ]
}
